Test results published in ChEMBL document CHEMBL4376889, “Discovery of a Brain-Penetrant ATP-Competitive Inhibitor of the Mechanistic Target of Rapamycin (mTOR) for CNS Disorders” (J Med Chem, 2020).
Values after ≈ are worked out from the molar mass of the structure shown. Active and inactive are the calls of the source. The calls are words filed in the database; no cut-off is given here.

Experiments:
[1] = Ratio of drug concentration in brain to plasma in Sprague-Dawley rat at 3 mg/kg, po incubated for 24 hrs by LC-MS/MS analysis; format: ADME, organism-based; conditions: read-out: BPR
[2] = Half life in C57BL/6 mouse at 1 mg/kg, iv or 5 mg/kg, po by HPLC analysis; format: ADME, organism-based; conditions: in vivo
[3] = Solubility of compound at pH 6.8; format: physicochemical; conditions: buffer
Mus musculus [4] = test: In vivo inhibition of mTOR pathway in C57BL/6J mouse assessed as reduction in mTORC1/mTORC2 complex by measuring PS6 phosphorylation level at 1 to 10 mg/kg, po measured after 8 hrs by Western blot analysis; format: functional, organism-based
[5] = Ratio of drug concentration in brain to plasma in C57BL/6J mouse at 3 mg/kg, po incubated for 3 hrs by LC-MS/MS analysis; format: ADME, organism-based; conditions: read-out: BPR
Mus musculus [6] = test: Protection against C57BL/6J mouse model of neuronal mTOR hyperactivity assessed as survival rate at 10 mg/kg, ip administered on postnatal day 22 daily and measured on postnatal day 36 (reference value: 48 %); format: functional
[7] = biological target: 1-phosphatidylinositol 3-phosphate 5-kinase (Homo sapiens) (UniProt Q9Y2I7); test: Inhibition of wild-type human partial length PIKFYVE (F1512 to C2098 residues) expressed in mammalian expression system at 10000 nM by Kinomescan method
[8] = biological target: Serine/threonine-protein kinase ATR (Homo sapiens, UniProt Q13535); test: Inhibition of ATR (unknown origin) assessed as reduction in CHK1 phosphorylation by cell based assay
[9] = Oral bioavailability in Sprague-Dawley rat at 3 mg/kg by HPLC analysis; format: ADME, organism-based; conditions: in vivo
[10] = biological target: Myosin light chain kinase, smooth muscle (Homo sapiens) (UniProt Q15746); test: Inhibition of wild-type human […] MYLK (M854 to E1845 residues) expressed in mammalian expression system at 10000 nM by Kinomescan method
[11] = Volume of distribution at steady state in Sprague-Dawley rat at 1 mg/kg, iv or 3 mg/kg, po by HPLC analysis; format: ADME, organism-based; conditions: in vivo, read-out: Vdss
[12] = Ratio of drug concentration in brain to plasma in C57BL/6J mouse at 10 mg/kg, po incubated for 3 hrs by LC-MS/MS analysis; format: ADME, organism-based; conditions: read-out: BPR
[13] = biological target: Phosphatidylinositol 4,5-bisphosphate 3-kinase catalytic subunit gamma isoform (Homo sapiens, UniProt P48736); test: Inhibition of PI3Kgamma (unknown origin)
Sequence of Phosphatidylinositol 4,5-bisphosphate 3-kinase catalytic subunit gamma isoform (P48736 whole entry, canonical isoform): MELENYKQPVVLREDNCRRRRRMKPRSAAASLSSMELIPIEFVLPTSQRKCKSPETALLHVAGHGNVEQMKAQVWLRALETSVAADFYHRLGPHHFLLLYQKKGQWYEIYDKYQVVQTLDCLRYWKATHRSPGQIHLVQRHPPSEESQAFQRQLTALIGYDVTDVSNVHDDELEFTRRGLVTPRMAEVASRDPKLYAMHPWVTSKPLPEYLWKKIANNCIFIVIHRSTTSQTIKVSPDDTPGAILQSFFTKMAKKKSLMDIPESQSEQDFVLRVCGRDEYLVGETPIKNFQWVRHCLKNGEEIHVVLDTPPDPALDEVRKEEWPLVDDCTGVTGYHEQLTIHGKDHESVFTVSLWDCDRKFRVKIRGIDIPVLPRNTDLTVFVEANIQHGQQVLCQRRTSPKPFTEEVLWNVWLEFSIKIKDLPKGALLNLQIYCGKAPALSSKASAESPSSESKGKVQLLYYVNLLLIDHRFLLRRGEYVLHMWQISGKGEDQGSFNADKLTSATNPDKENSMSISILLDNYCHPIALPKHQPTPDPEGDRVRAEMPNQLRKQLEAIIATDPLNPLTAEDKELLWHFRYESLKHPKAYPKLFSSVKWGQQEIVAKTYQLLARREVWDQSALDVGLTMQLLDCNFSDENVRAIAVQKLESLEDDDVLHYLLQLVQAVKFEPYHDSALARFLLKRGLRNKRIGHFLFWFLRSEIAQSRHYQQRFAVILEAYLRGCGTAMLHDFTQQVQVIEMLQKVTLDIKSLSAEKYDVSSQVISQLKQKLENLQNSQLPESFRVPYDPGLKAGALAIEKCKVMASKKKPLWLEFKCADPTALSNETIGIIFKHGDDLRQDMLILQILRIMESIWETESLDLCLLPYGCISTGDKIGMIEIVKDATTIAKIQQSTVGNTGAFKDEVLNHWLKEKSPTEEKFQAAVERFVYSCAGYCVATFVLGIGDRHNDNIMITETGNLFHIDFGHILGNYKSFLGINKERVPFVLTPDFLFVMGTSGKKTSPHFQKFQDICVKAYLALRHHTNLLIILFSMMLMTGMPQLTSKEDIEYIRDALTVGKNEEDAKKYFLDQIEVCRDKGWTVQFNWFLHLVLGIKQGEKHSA

Mus musculus [14] = test: In vivo inhibition of mTOR pathway in C57BL/6J mouse assessed as reduction in mTORC1/mTORC2 complex by measuring PS6 phosphorylation level at 1 to 10 mg/kg, po measured after 24 hrs by Western blot analysis; format: functional, organism-based
[15] = Tmax in C57BL/6 mouse at 1 mg/kg, iv or 5 mg/kg, po by HPLC analysis; format: ADME, organism-based; conditions: in vivo
MDR1 = test: Efflux ratio of permeability from basolateral to apical over apical to basolateral side in MDCK-MDR1 cells; format: ADME, cell-based, Canis lupus familiaris; conditions: dog
[16] = biological target: Serine/threonine-protein kinase mTOR (Rattus norvegicus, UniProt P42346, C1483Y); test: Inhibition of mTOR C1483Y mutant in rat primary cortical neuron assessed as reduction in PS6 phosphorylation incubated for 4 hrs by Western blot analysis (reference value: 19 nM)
Sequence of Serine/threonine-protein kinase mTOR (Rattus norvegicus, UniProt P42346, C1483Y) (P42346 whole entry C1483Y, looked up): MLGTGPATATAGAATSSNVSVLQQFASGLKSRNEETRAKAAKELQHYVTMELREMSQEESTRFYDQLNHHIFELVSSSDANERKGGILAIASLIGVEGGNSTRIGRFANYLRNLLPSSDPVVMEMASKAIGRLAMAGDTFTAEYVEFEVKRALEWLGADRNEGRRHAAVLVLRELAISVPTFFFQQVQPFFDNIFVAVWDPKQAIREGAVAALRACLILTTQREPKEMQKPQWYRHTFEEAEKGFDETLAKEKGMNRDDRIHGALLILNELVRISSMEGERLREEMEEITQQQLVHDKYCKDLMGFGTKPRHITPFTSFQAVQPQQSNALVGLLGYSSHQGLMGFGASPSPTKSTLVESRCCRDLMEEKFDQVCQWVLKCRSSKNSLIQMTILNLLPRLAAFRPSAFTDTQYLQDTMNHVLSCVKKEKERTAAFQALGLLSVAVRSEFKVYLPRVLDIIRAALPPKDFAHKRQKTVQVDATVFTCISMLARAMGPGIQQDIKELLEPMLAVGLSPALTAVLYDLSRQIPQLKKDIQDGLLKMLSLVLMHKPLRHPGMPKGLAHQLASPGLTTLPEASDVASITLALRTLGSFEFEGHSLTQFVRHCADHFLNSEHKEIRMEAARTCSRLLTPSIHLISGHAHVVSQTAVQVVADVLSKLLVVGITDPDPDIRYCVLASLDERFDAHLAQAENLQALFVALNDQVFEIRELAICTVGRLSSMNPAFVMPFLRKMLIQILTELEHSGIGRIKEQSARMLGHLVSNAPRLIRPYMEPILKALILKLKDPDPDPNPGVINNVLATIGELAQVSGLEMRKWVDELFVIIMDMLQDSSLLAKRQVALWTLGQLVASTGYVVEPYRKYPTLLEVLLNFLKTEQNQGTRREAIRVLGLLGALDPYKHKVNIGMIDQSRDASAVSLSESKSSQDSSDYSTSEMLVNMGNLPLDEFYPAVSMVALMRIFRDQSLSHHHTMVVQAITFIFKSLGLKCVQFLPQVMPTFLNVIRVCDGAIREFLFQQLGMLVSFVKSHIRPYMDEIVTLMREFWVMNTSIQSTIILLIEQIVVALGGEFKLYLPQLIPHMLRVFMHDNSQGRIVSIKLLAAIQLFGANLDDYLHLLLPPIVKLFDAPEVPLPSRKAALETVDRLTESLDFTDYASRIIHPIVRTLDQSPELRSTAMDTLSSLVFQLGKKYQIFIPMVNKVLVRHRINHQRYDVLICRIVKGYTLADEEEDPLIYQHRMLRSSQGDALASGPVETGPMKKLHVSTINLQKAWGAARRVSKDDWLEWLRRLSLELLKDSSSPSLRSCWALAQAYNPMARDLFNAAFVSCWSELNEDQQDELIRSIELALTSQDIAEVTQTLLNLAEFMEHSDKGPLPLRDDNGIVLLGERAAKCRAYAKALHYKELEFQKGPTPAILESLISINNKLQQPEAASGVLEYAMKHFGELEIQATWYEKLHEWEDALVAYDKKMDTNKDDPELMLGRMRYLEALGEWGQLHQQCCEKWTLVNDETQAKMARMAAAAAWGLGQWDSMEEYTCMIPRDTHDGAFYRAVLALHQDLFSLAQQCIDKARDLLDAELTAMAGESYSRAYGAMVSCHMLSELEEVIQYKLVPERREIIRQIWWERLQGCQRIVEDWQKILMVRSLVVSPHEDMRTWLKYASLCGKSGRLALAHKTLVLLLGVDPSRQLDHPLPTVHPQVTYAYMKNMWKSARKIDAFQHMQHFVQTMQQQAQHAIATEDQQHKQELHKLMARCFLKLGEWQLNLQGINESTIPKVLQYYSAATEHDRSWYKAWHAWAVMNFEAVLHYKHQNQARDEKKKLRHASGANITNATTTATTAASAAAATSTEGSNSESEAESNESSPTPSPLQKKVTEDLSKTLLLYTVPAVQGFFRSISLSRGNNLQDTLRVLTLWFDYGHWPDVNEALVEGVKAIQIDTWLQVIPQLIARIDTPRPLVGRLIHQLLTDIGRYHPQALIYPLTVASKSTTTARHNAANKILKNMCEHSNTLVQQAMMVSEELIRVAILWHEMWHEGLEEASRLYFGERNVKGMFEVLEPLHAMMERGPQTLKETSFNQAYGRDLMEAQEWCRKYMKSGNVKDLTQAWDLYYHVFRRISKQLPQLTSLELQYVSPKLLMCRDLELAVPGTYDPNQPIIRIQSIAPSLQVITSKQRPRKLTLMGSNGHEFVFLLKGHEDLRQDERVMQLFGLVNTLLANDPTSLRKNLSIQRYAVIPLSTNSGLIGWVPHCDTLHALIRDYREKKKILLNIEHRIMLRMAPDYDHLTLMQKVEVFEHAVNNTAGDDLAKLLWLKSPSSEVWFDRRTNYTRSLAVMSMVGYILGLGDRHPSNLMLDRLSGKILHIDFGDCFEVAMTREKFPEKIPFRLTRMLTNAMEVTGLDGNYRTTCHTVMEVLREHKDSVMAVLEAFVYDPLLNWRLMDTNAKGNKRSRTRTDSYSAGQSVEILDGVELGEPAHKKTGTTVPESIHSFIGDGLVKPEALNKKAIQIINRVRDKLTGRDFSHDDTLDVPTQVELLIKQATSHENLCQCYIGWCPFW

[17] = Drug uptake in C57BL/6J mouse brain at 1 mg/kg, po incubated for 3 hrs by LC-MS/MS analysis; format: ADME, organism-based; conditions: read-out: Drug uptake
Cortical neurone [18] = test: Inhibition of oversizing of mouse primary cortical neuron harboring TSC1 deletion mutant at 200 nM incubated for 7 days by immunofluorescence assay; format: functional, cell-based; conditions: 168 h
[19] = Stability in rat liver microsomes assessed as intrinsic clearance at 1 uM incubated for 30 mins by LC-MS/MS analysis; format: ADME, Microsome; conditions: read-out: CLH
[20] = Cmax in C57BL/6 mouse at 1 mg/kg, iv or 5 mg/kg, po by HPLC analysis; format: ADME, organism-based; conditions: in vivo
Cytochrome P450 3A4 = Cytochrome P450 3A4 (Homo sapiens, UniProt P08684); test: Inhibition of CYP3A4 (unknown origin); format: ADME
[21] = biological target: Phosphatidylinositol 4,5-bisphosphate 3-kinase catalytic subunit beta isoform (Homo sapiens, UniProt P42338); test: Inhibition of PI3Kbeta (unknown origin)
Sequence of Phosphatidylinositol 4,5-bisphosphate 3-kinase catalytic subunit beta isoform (P42338 whole entry, canonical isoform): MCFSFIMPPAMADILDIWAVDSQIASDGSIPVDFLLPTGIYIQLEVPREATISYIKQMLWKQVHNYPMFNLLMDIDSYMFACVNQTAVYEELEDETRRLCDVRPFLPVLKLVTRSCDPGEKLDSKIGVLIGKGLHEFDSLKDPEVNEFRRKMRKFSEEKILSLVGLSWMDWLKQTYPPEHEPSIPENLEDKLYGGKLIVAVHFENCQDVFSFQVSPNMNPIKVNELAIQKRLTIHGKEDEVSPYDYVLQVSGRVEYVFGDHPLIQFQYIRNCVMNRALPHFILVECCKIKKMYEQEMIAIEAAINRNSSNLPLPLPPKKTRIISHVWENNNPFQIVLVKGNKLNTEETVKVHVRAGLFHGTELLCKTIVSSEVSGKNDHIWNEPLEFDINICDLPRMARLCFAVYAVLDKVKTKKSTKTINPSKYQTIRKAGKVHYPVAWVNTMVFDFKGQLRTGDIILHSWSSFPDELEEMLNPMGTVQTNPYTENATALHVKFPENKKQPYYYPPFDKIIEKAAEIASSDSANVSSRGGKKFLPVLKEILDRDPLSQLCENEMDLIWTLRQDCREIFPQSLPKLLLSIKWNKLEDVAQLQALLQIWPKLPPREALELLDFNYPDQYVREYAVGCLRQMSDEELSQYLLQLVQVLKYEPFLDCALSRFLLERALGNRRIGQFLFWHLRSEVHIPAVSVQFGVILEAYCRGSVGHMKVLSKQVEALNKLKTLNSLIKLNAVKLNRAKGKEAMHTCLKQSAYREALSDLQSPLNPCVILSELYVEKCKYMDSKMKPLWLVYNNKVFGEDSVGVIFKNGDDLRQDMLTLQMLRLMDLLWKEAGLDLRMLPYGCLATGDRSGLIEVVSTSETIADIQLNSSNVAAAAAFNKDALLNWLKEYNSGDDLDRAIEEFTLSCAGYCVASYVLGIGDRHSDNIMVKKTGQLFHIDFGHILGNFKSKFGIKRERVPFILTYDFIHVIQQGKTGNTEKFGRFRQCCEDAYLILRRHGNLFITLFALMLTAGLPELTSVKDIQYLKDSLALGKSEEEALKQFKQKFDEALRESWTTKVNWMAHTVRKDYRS

[22] = Volume of distribution at steady state in C57BL/6 mouse at 1 mg/kg, iv or 5 mg/kg, po by HPLC analysis; format: ADME, organism-based; conditions: in vivo, read-out: Vdss
[23] = Oral bioavailability in C57BL/6 mouse at 5 mg/kg by HPLC analysis; format: ADME, organism-based; conditions: in vivo
[24] = biological target: Serine/threonine-protein kinase mTOR (Mus musculus, UniProt Q9JLN9); test: Inhibition of mTOR in mouse MEF cells harboring TSC1 deletion mutant assessed as reduction in PS6 phosphorylation incuabted for 2 hrs alexa fluor 594 and Hoechst staining based fluorescence assay; format: cell-based
[25] = biological target: Serine/threonine-protein kinase mTOR (Rattus norvegicus, UniProt P42346, S2215Y); test: Inhibition of mTOR S2215Y mutant in rat primary cortical neuron assessed as reduction in PS6 phosphorylation incubated for 4 hrs by Western blot analysis (reference value: 19 nM)
Sequence of Serine/threonine-protein kinase mTOR (Rattus norvegicus, UniProt P42346, S2215Y) (P42346 whole entry S2215Y, looked up): as the sequence (P42346 whole entry C1483Y, looked up) above, with Y1483C, S2215Y counted along it

[26] = Selectivity index, ratio of IC50 for PDE4D (unknown origin) to IC50 for inhibition of mTOR in mouse MEF cells harboring TSC1 deletion mutant; format: cell-based
[27] = Protein binding in Sprague-Dawley rat brain homogenate at 5 uM incubated for 4 hrs by LC-MS/MS analysis; format: ADME, tissue-based; conditions: read-out: PB (converted)
[28] = biological target: DNA-dependent protein kinase catalytic subunit (Homo sapiens, UniProt P78527); test: Inhibition of DNAPK (unknown origin)
[29] = Drug uptake in C57BL/6J mouse brain at 10 mg/kg, po incubated for 3 hrs by LC-MS/MS analysis; format: ADME, organism-based; conditions: read-out: Drug uptake
[30] = biological target: Serine-protein kinase ATM (Homo sapiens, UniProt Q13315); test: Inhibition of ATM (unknown origin) assessed as reduction in CHK2 phosphorylation by cell based assay
[31] = biological target: Serine/threonine-protein kinase mTOR (Rattus norvegicus, UniProt P42346, L2427P); test: Inhibition of mTOR L2427P mutant in rat primary cortical neuron assessed as reduction in PS6 phosphorylation incubated for 4 hrs by Western blot analysis (reference value: 19 nM)
Sequence of Serine/threonine-protein kinase mTOR (Rattus norvegicus, UniProt P42346, L2427P) (P42346 whole entry L2427P, looked up): as the sequence (P42346 whole entry C1483Y, looked up) above, with Y1483C, L2427P counted along it

[32] = Cmax in Sprague-Dawley rat at 1 mg/kg, iv or 3 mg/kg, po by HPLC analysis; format: ADME, organism-based; conditions: in vivo
Cortical neurone [33] = test: Inhibition of overgrowth of mouse primary cortical neuron harboring TSC1 deletion mutant at 200 nM incubated for 7 days by immunofluorescence assay; format: functional, cell-based

C[C@@H]1COCCN1c1nc(N2CCOC[C@@H]2C)nc2sc(-c3cc[nH]n3)nc12
Kp at 24 h [1]: 3.1
half-life [2]: 4.3 h
solubility [3]: 120 µg/mL (≈ 299 µM)
inhibition (Mus musculus [4]): Active
Kp at 3 h [5]: 1.1
Activity (Mus musculus [6]): 95%
inhibition [7]: Active
IC50 [8]: 394 nM
bioavailability [9]: 81%
inhibition [10]: Active
Vd [11]: 2.6 L/kg
Kp at 3 h [12]: 1.3
IC50 [13]: > 10000 nM
inhibition (Mus musculus [14]): inactive
Tmax [15]: 1.3 h
efflux ratio (MDR1): 0.93
IC50 [16]: 37 nM
concentration at 3 h [17]: 929 nM
IC50 (Cortical neurone [18]): 30 nM
microsomal CLint at 1 µM [19]: 42 µL/min/mg
Cmax [20]: 2700 nM
K (Cytochrome P450 3A4): 0.006 min⁻¹
IC50 [21]: > 10000 nM
Vd [22]: 2.3 L/kg
bioavailability [23]: 61%
IC50 [24]: 5.6 nM
IC50 [25]: 14 nM
Ratio IC50 [26]: 38
fraction unbound at 4 h, 5 µM [27]: 0.004
IC50 [28]: 1290 nM
concentration at 3 h [29]: 5820 nM
IC50 [30]: 20 nM
IC50 [31]: 24 nM
Cmax [32]: 1120 nM
inhibition (Cortical neurone [33]): Active
